Results published in patent US9675539B2, “Cosmetic and pharmaceutical compositions and methods using 2-decarboxy-2-phosphinico derivatives” (Duke University, priority 2000, dated 2017).
pIC50: −log10 of the molar value.

Molecular target: hFP receptor (Homo sapiens (Human), UniProt P43088)
Test: Radioligand Binding Assay
Settings: competition with 5 nM (3H) PGF2α on hFP membranes from transfected COS-7 cells; read-out: IC50 the PGF
Procedure: IC50 of a prostaglandin can be determined relative to PGF2α using the Radioligand Binding Assay.
In this assay, COS-7 cells are transiently transfected with the hFP recombinant plasmid using LipofectAMINE Reagent. Forty-eight hours later, the transfected cells are washed with Hank's Balanced Salt Solution (HBSS, without CaCl2, MgCl2, MgSO4, or phenol red). The cells are detached with versene, and HBSS is added. The mixture is centrifuged at 200 g for 10 minutes, at 4° C. to pellet the cells. The pellet is resuspended in Phosphate-Buffered Saline-EDTA buffer (PBS; 1 mM EDTA; pH 7.4; 4° C.). […] The mixture is centrifuged at 1000 g for 10 minutes at 4° C. The supernatant is centrifuged at 100,000 g for 60 minutes at 4° C. The pellet is resuspended to 1 mg protein/mL TME buffer (50 mM Tris; 10 mM MgCl2; 0.1 mM EDTA; pH 6.0; 4° C.) based on protein levels measured using the Pierce BCA Protein Assay kit. […] The membrane preparations are then stored at −80° C., until thawed for assay use.
The receptor competition binding assays are developed in a 96 well format. Each well contains 100 g of hFP membrane, 5 nM (3 H) PGF2α, and the various competing compounds in a total volume of 200 L. The plates are incubated at 23° C. for 1 hour. […] The plates are read on a Packard TOPCOUNT® Microplate Scintillation Counter (also available from Packard Instrument Co., Inc.)

Chain of hFP receptor (P43088 whole entry): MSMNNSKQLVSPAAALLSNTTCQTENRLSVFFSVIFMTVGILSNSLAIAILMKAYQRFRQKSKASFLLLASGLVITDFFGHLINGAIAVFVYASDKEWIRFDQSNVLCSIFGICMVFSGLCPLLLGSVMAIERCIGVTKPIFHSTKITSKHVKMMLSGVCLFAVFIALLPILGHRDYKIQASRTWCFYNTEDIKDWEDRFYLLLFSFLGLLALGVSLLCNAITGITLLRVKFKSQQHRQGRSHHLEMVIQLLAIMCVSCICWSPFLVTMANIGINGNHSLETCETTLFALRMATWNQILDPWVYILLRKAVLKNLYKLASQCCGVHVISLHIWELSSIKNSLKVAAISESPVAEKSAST

pIC50: 6.94
SMILES: CCCCCC(O)/C=C/[C@@H]1[C@@H](C/C=C\CCC[PH](=O)O)[C@@H](O)C[C@H]1O (stereo partly shown) [Example 1-2]
